Test system: liver cells
Assay: In vivo LNP delivery of fLuciferase mRNA, bioluminescent imaging (BLI) at 4 hr
Set-up: species or system BALB/C mice
Settings: for Mean Luciferase Flux: 0.5 mg/kg fLuc mRNA i.v., 4 hr; for Total Flux: 0.5 mg/kg fLuciferase mRNA intravenous, BLI at 4 hr
Description: Adult female BALB/C mice (n=3/group) were intravenously administered 0.5 mg/kg of 5′-CleanCap—fLuciferase mRNA (TriLink Biotech) formulated with the LNP compositions shown in Table 6. One group of mice was treated with vehicle (PBS, Thermo Fisher Scientific, USA) as a negative control.
(§1) The location and extent of luciferase expression in treated and control mice were determined at 4 hr for mRNA and 48 hr for DNA by bioluminescent imaging (BLI) of anesthetized mice using an IVIS Lumina in vivo imaging system (Perkin Elmer) according to the manufacturer's instructions. Briefly, mice were anesthetized using isoflurane in oxygen, and placed supine on a heated stage. Mice were then administered D-luciferin (Perkin-Elmer #122799) IP, and BLI was performed.
as §1, with “hr” for “hr for mRNA and 48 hr for DNA”
as §1, with “hr” for “hr for mRNA and 48 hr for DNA”
The location and extent of luciferase expression in treated and control mice were determined at 4 hr by bioluminescent imaging (BLI) of anesthetized mice using an IVIS Lumina in vivo imaging system (Perkin Elmer) according to the manufacturer's instructions.
Briefly, mice were anesthetized using isoflurane in oxygen, and placed supine on a heated stage. Mice were then administered D-luciferin (Perkin-Elmer #122799) IP, and BLI was performed.
as §1, with “hr” for “hr for mRNA and 48 hr for DNA”

[1] = Table 13 experiment, LNP with 50 % moles of the compound (DOPC 10/Chol 38.5/PEG-DMG 1.5, Lipid:RNA 80)
[2] = Example 104, experiment of Table 65
[3] = Example 104, experiment of Table 64
[4] = Example 104, experiment of Table 63
[5] = LNP with 40.75 % moles of the compound (DOPC 5.0/Chol 51.75/PEG-DMG 2.5, Lipid:RNA 100)
[6] = LNP with 43.17 % moles of the compound (DOPC 11.96/Chol 43.17/PEG-DMG 1.7, Lipid:RNA 100)
[7] = LNP with 54.0 % moles of the compound (DOPC 10.0/Chol 35.0/PEG-DMG 1.0, Lipid:RNA 100)

Structure (SMILES): CCCCC[C@H]1CC[C@H](C(=O)OCCCCCN(CCO)CCCOC(=O)[C@H]2CC[C@H](CCCCC)CC2)CC1 [COMPOUND NO. 21]
- Mean Luciferase Flux [1]: 1.27E+08 p/s

Structure (SMILES): CCCCC[C@H]1CC[C@H](C(=O)OCC(COC(=O)CCCCN(CCCCO)CCCCC(=O)OCC(COC(=O)[C@H]2CC[C@H](CCCCC)CC2)COC(=O)[C@H]2CC[C@H](CCCCC)CC2)COC(=O)[C@H]2CC[C@H](CCCCC)CC2)CC1 [COMPOUND NO. 73]
- Total Flux [2]: 1.61E+11 p/s

Structure (SMILES): CCCCC[C@H]1CC[C@H](C(=O)OCC(COC(=O)CCCCCN(CCCCCC(=O)OCC(COC(=O)[C@H]2CC[C@H](CCCCC)CC2)COC(=O)[C@H]2CC[C@H](CCCCC)CC2)CC(O)CO)COC(=O)[C@H]2CC[C@H](CCCCC)CC2)CC1 (mixture of isomers) [COMPOUND NO. 59]
- Total Flux [3]: 1.06E+11 p/s

Structure (SMILES): CCCCC[C@H]1CC[C@H](C(=O)OCC(COC(=O)CCCCCN(CCC)CCCCCC(=O)OCC(COC(=O)[C@H]2CC[C@H](CCCCC)CC2)COC(=O)[C@H]2CC[C@H](CCCCC)CC2)COC(=O)[C@H]2CC[C@H](CCCCC)CC2)CC1 [COMPOUND NO. 58]
- Total Flux [3]: 4.38E+09 p/s

Structure (SMILES): CCCCC[C@H]1CC[C@H](C(=O)OCC(COC(=O)CCCCCN(CCCCCC(=O)OCC(COC(=O)[C@H]2CC[C@H](CCCCC)CC2)COC(=O)[C@H]2CC[C@H](CCCCC)CC2)C[C@H](C)O)COC(=O)[C@H]2CC[C@H](CCCCC)CC2)CC1 [COMPOUND NO. 56]
- Total Flux [4]: 9.88E+10 p/s

Structure (SMILES): CCCCC[C@H]1CC[C@H](C(=O)OCCCCCN(CCCO)CCCOC(=O)[C@H]2CC[C@H](CCCCC)CC2)CC1 [COMPOUND NO. 22]
- Mean Luciferase Flux [1]: 2.31E+07 p/s

Structure (SMILES): CCCCC[C@H]1CC[C@H](C(=O)OCC(COC(=O)CCCCCN(CCCCCC(=O)OCC(COC(=O)[C@H]2CC[C@H](CCCCC)CC2)COC(=O)[C@H]2CC[C@H](CCCCC)CC2)CC(C)O)COC(=O)[C@H]2CC[C@H](CCCCC)CC2)CC1 (mixture of isomers) [COMPOUND NO. 55]
- Total Flux [4]: 7.89E+10 p/s

Structure (SMILES): CCCCC[C@H]1CC[C@H](C(=O)OCC(COC(=O)CCCCN(CCCO)CCCCC(=O)OCC(COC(=O)[C@H]2CC[C@H](CCCCC)CC2)COC(=O)[C@H]2CC[C@H](CCCCC)CC2)COC(=O)[C@H]2CC[C@H](CCCCC)CC2)CC1 [COMPOUND NO. 72]
- Total Flux [2]: 2.40E+11 p/s

Structure (SMILES): O=C(CCCCCN(CCCO)CCCCCC(=O)OCC(COC(=O)CCCCC1CCCCC1)COC(=O)CCCCC1CCCCC1)OCC(COC(=O)CCCCC1CCCCC1)COC(=O)CCCCC1CCCCC1 [COMPOUND NO. 66]
- Total Flux [4]: 3.25E+11 p/s

Structure (SMILES): CN(CCN(CCC(=O)OCCOC(=O)CCCCC1CCCCC1)CCC(=O)OCCOC(=O)CCCCC1CCCCC1)CCN(CCC(=O)OCCOC(=O)CCCCC1CCCCC1)CCC(=O)OCCOC(=O)CCCCC1CCCCC1 [COMPOUND NO. 6]
- Mean Luciferase Flux [5]: 1.78E+11 p/s
- Mean Luciferase Flux [6]: 3.23E+10 p/s
- Mean Luciferase Flux [7]: 4.58E+10 p/s

Structure (SMILES): CC(C)CCCC1CCC(COC(=O)C(CCCN(C)CCCC(C(=O)OCC2CCC(CCCC(C)C)CC2)C(=O)OCC2CCC(CCCC(C)C)CC2)C(=O)OCC2CCC(CCCC(C)C)CC2)CC1 (stereo not shown) [COMPOUND NO. 43]
- Mean Luciferase Flux (Table 14 experiment, LNP with 40.75 % moles of the compound (Lipid:RNA 40)): 1.12E+09 p/s
- Mean Luciferase Flux (Table 14 experiment, LNP with 50 % moles of the compound (Lipid:RNA 80)): 1.10E+09 p/s

Structure (SMILES): CCCCC[C@H]1CC[C@H](C(=O)OCC(COC(=O)CCCCCN(CCCCCCO)CCCCCC(=O)OCC(COC(=O)[C@H]2CC[C@H](CCCCC)CC2)COC(=O)[C@H]2CC[C@H](CCCCC)CC2)COC(=O)[C@H]2CC[C@H](CCCCC)CC2)CC1 [COMPOUND NO. 52]
- Total Flux [4]: 1.81E+11 p/s

Structure (SMILES): CCCCCCCCC(CCCCCC)C(=O)O[C@H]1CC[C@H](OC(=O)CCCCCN(CCO)CCCCCC(=O)O[C@H]2CC[C@H](OC(=O)C(CCCCCC)CCCCCCCC)CC2)CC1 (stereo partly shown) [COMPOUND NO. 27]
- Mean Luciferase Flux [1]: 1.10E+10 p/s

Structure (SMILES): CC(C)CCCC(=O)OCC1CCC(COC(=O)CCN(CCCN(C)CCCN(CCC(=O)OCC2CCC(COC(=O)CCCC(C)C)CC2)CCC(=O)OCC2CCC(COC(=O)CCCC(C)C)CC2)CCC(=O)OCC2CCC(COC(=O)CCCC(C)C)CC2)CC1 (stereo not shown) [COMPOUND NO. 7]
- Mean Luciferase Flux [5]: 6.41E+10 p/s
- Mean Luciferase Flux [6]: 1.84E+11 p/s
- Mean Luciferase Flux [7]: 1.55E+11 p/s

Structure (SMILES): CCCCC[C@H]1CC[C@H](C(=O)OCC(COC(=O)CCCCCN(CCCCCC(=O)OCC(COC(=O)[C@H]2CC[C@H](CCCCC)CC2)COC(=O)[C@H]2CC[C@H](CCCCC)CC2)C[C@@H](O)CO)COC(=O)[C@H]2CC[C@H](CCCCC)CC2)CC1 [COMPOUND NO. 60]
- Total Flux [3]: 6.51E+10 p/s

Structure (SMILES): CCCCC[C@H]1CC[C@H](C(=O)OCC(COC(=O)CCCCCN(CCCCCC(=O)OCC(COC(=O)[C@H]2CC[C@H](CCCCC)CC2)COC(=O)[C@H]2CC[C@H](CCCCC)CC2)C[C@H](O)CO)COC(=O)[C@H]2CC[C@H](CCCCC)CC2)CC1 [COMPOUND NO. 61]
- Total Flux [3]: 1.04E+11 p/s

Structure (SMILES): CCCCCCCCC(CCCCCCCC)OC(=O)[C@H]1CC[C@H](C(=O)OCCCCCN(CCCO)CCCCCOC(=O)[C@H]2CC[C@H](C(=O)OC(CCCCCCCC)CCCCCCCC)CC2)CC1 [COMPOUND NO. 31]
- Mean Luciferase Flux [1]: 1.00E+10 p/s

Structure (SMILES): CCCCCCCCC(CCCCCC)C(=O)O[C@H]1CC[C@H](OC(=O)CCCCCN(CCCO)CCCCCC(=O)O[C@H]2CC[C@H](OC(=O)C(CCCCCC)CCCCCCCC)CC2)CC1 (stereo partly shown) [COMPOUND NO. 28]
- Mean Luciferase Flux [1]: 3.28E+10 p/s

Structure (SMILES): CCCCCCCCC(CCCCCCCC)OC(=O)[C@H]1CC[C@H](C(=O)OCCCCCN(CCO)CCCCCOC(=O)[C@H]2CC[C@H](C(=O)OC(CCCCCCCC)CCCCCCCC)CC2)CC1 [COMPOUND NO. 30]
- Mean Luciferase Flux [1]: 2.54E+10 p/s

Structure (SMILES): CCCCC[C@H]1CC[C@H](C(=O)OCC(COC(=O)CCCCCN(CCCCCC(=O)OCC(COC(=O)[C@H]2CC[C@H](CCCCC)CC2)COC(=O)[C@H]2CC[C@H](CCCCC)CC2)C(CO)CO)COC(=O)[C@H]2CC[C@H](CCCCC)CC2)CC1 [COMPOUND NO. 62]
- Total Flux [2]: 2.20E+11 p/s

Structure (SMILES): CCCCC[C@H]1CC[C@H](C(=O)OCC(COC(=O)CCCCCN(CCCCCC(=O)OCC(COC(=O)[C@H]2CC[C@H](CCCCC)CC2)COC(=O)[C@H]2CC[C@H](CCCCC)CC2)[C@H]2CC[C@H](CO)CC2)COC(=O)[C@H]2CC[C@H](CCCCC)CC2)CC1 [COMPOUND NO. 54]
- Total Flux [4]: 1.30E+11 p/s

Structure (SMILES): CCCCCCCCC(CCCCCCCC)OC(=O)[C@H]1CC[C@H](C(=O)OCCCCCN(CCCCO)CCCCCOC(=O)[C@H]2CC[C@H](C(=O)OC(CCCCCCCC)CCCCCCCC)CC2)CC1 [COMPOUND NO. 32]
- Mean Luciferase Flux [1]: 7.76E+09 p/s

Structure (SMILES): O=C(CCCCCN(CCO)CCCCCC(=O)OCC(COC(=O)CCCCC1CCCCC1)COC(=O)CCCCC1CCCCC1)OCC(COC(=O)CCCCC1CCCCC1)COC(=O)CCCCC1CCCCC1 [COMPOUND NO. 65]
- Total Flux [4]: 1.30E+11 p/s

Structure (SMILES): CCCCC[C@H]1CC[C@H](C(=O)OCCCCCCCN(CCO)CCCCCCCOC(=O)[C@H]2CC[C@H](CCCCC)CC2)CC1 [COMPOUND NO. 24]
- Mean Luciferase Flux [1]: 3.46E+06 p/s

Structure (SMILES): CCCCCCCCC(CCCCCC)C(=O)OC1CCC(OC(=O)CCCCCN(CCO)CCCCCCCOC(=O)C2CCC(CCCCC)CC2)CC1 (stereo not shown) [COMPOUND NO. 33]
- Mean Luciferase Flux [1]: 1.73E+10 p/s

Structure (SMILES): CCCCCC(=O)OCC1CCC(COC(=O)C(CCCN(CCCO)CCCC(C(=O)OCC2CCC(COC(=O)CCCCC)CC2)C(=O)OCC2CCC(COC(=O)CCCCC)CC2)C(=O)OCC2CCC(COC(=O)CCCCC)CC2)CC1 (stereo not shown) [COMPOUND NO. 49]
- Total Flux [4]: 2.00E+11 p/s

Structure (SMILES): O=C(OCCCCC1CCCCC1)C(CCCCCCN(CCCO)CCCCCCC(C(=O)OCCCCC1CCCCC1)C(=O)OCCCCC1CCCCC1)C(=O)OCCCCC1CCCCC1 [COMPOUND NO. 45]
- Total Flux [4]: 2.42E+10 p/s

Structure (SMILES): CN(CCCN(CCC(=O)OCCOC(=O)CCCCC1CCCCC1)CCC(=O)OCCOC(=O)CCCCC1CCCCC1)CCCN(CCC(=O)OCCOC(=O)CCCCC1CCCCC1)CCC(=O)OCCOC(=O)CCCCC1CCCCC1 [COMPOUND NO. 5]
- Mean Luciferase Flux [5]: 2.84E+11 p/s
- Mean Luciferase Flux [6]: 7.16E+10 p/s
- Mean Luciferase Flux [7]: 7.25E+08 p/s

Structure (SMILES): CCCCC[C@H]1CC[C@H](C(=O)CCCCN(CCCOC(=O)[C@H]2CC[C@H](CCCCC)CC2)CCCN(C)CCCN(CCCOC(=O)[C@H]2CC[C@H](CCCCC)CC2)CCCOC(=O)[C@H]2CC[C@H](CCCCC)CC2)CC1 [COMPOUND NO. 35]
- Mean Luciferase Flux (Table 13 experiment, first line of compound 35, printed 50 % moles (Table 12: 40.75 % moles, Lipid:RNA 80)): 2.35E+09 p/s
- Mean Luciferase Flux (Table 13 experiment, second line of compound 35, printed 50 % moles (Table 12: 40.75 % moles, Lipid:RNA 40)): 3.13E+09 p/s
